Among the data in patent publication US20210189342A1, “COMPOSITIONS AND METHODS FOR MODULATING MONOCYTE AND MACROPHAGE INFLAMMATORY PHENOTYPES AND IMMUNOTHERAPY USES THEREOF” (Verseau Therapeutics, Inc., priority 2018, published 2021) are IC50 values, retold here.

One data set has as its system CD53. Briefly: siRNA dose response, CD53 mRNA knockdown, bDNA Assay. The data set is classed as cell-based, human. Conditions: THP-1, 24 hr. As for the experimental part: (§1) Dose response curves for siRNAs were generated in vitro using a variety of cell lines according to Table 4.
(§2) Briefly, cells were seeded in 96-well plates and reverse transfected with siRNA, Lipofectamine® 2000 (0.5 uL/well; ThermoFisher), and, in some cases, a reporter plasmid (50 ng/well). The reporter plasmid (psiCHECK™-2, Promega) encoded both firefly luciferase and the gene of interest fused to renilla luciferase; silencing of the gene of interest results in proportional silencing of renilla luciferase but leaves firefly luciferase unaffected as an internal control.
(§3) After 24 hr incubation at 37° C., mRNA knockdown was measured using an endpoint assay. For targets without a reporter plasmid, a branched DNA (bDNA) assay was performed according to the manufacturer's instructions (QuantiGene® Singleplex Gene Expression Assay, ThermoFisher) to measure both the target gene and GAPDH (housekeeping gene) mRNA. Data are plotted as siRNA concentration (nM) vs. remaining mRNA (ratio of target gene to GAPDH, normalized to mock siRNA-transfected cells). For targets with a reporter plasmid, a Dual-Glo® Luciferase Assay was performed according to the manufacturer's instructions (Promega) to measure firefly and renilla luciferase expression. Data are plotted as siRNA concentration (nM) vs. remaining mRNA (ratio of renilla to firefly luminescence, normalized to mock siRNA-transfected cells).
(§4) For all dose response curves, a 4-parameter logistic model was applied to determine the IC50 of each siRNA sequence (Table 5 and FIG. 2). Data shown in Table 5 and FIG. 2 represent the mean of quadruplicates, +/−standard deviation.
In the case of “XD-09201: siRNA targeting CD53 (sense 5'-gcAuGAGuAGcuugAAAcudTsdT-3'; antisense 5'-AGUUUcAAGCuACUcAUGCdTsdT-3'; as printed in the source, key not given here)”, 0.067 nM corresponded to half-maximal inhibition (IC50).

“XD-09203: siRNA targeting CD53 (sense 5'-gcAuGGGcucuAucAAGGAdTsdT-3'; antisense 5'-UCCUUGAuAGAGCCcAUGCdTsdT-3'; as printed in the source, key not given here)” yielded an IC50 of 0.178 nM. The substance “XD-09205: siRNA targeting CD53 (sense 5'-acuAAuAucuGAGcAucuudTsdT-3'; antisense 5'-AAGAUGCUcAGAuAUuAGUdTsdT-3'; as printed in the source, key not given here)” had an IC50 of 0.132 nM.

Regarding “XD-09207: siRNA targeting CD53 (sense 5'-agGGcAAGAucucauuucAdTsdT-3'; antisense 5'-UGAAAUGAGAUCUUGCCCUdTsdT-3'; as printed in the source, key not given here)”, 0.038 nM corresponded to half-maximal inhibition (IC50). With “XD-09208: siRNA targeting CD53 (sense 5'-uuuAuuAGAGGGccuuAuudTsdT-3'; antisense 5'-AAuAAGGCCCUCuAAuAAAdTsdT-3'; as printed in the source, key not given here)”, the IC50 is 0.162 nM. On the same count and under the same terms, next, “XD-09209: siRNA targeting CD53 (sense 5'-auuGAuGuGuucuaAGucudTsdT-3'; antisense 5'-AGACUuAGAAcAcAUcAAUdTsdT-3'; as printed in the source, key not given here)”: 0.041 nM.

The next data set has as its system LRRC25. Briefly: siRNA dose response, LRRC25 mRNA knockdown, Dual-Glo Luciferase Assay. The data set is classed as cell-based, human. Particulars: Hepa1-6 + reporter plasmid, 24 hr. As for the experimental part:
as §1, §2, §3, §4
As to “XD-09250: siRNA targeting LRRC25 (sense 5'-gccAGAGGAAcGccAGcGAdTsdT-3'; antisense 5'-UCGCUGGCGUUCCUCUGGCdTsdT-3'; as printed in the source, key not given here)”, the IC50 is 15 nM. On to “XD-09251: siRNA targeting LRRC25 (sense 5'-gccGucGcuuuuccAGcAudTsdT-3'; antisense 5'-AUGCUGGAAAAGCGACGGCdTsdT-3'; RNA with 2'-O-methyl and phosphorothioate modifications, case key not given here, as printed in the source, key not given here)”, for which the IC50 was found to be 2.77 nM. As to “XD-09256: siRNA targeting LRRC25 (sense 5'-ccGAcuAuGAGAAcAuGuudTsdT-3'; antisense 5'-AAcAUGUUCUcAuAGUCGGdTsdT-3'; as printed in the source, key not given here)”, the IC50 was found to be 0.601 nM. As for “XD-09258: siRNA targeting LRRC25 (sense 5'-caAuAAAuGcuucgAGGcudTsdT-3'; antisense 5'-AGCCUCGAAGcAUUuAUUGdTsdT-3'; RNA with 2'-O-methyl and phosphorothioate modifications, case key not given here, as printed in the source, key not given here)”, the IC50 is 0.033 nM. Same read-out and setting: next, “XD-09259: siRNA targeting LRRC25 (sense 5'-cuucGAGGcuGAugAGGcudTsdT-3'; antisense 5'-AGCCUcAUcAGCCUCGAAGdTsdT-3'; RNA with 2'-O-methyl and phosphorothioate modifications, case key not given here, as printed in the source, key not given here)”: 0.293 nM.

A further data set deals with FERMT3. Put plainly: siRNA dose response, FERMT3 mRNA knockdown, bDNA Assay. The data set is classed as cell-based, human. Particulars: THP-1, 24 hr. The procedure:
as §1, §2, §3, §4
Regarding “XD-09701: siRNA targeting FERMT3 (sense 5'-ggcuGcGcuucAAguAcuAdTsdT-3'; antisense 5'-uAGuACUUGAAGCGcAGCCdTsdT-3'; RNA with 2'-O-methyl and phosphorothioate modifications, case key not given here, as printed in the source, key not given here)”, the IC50 was 0.921 nM. Turning to “XD-09705: siRNA targeting FERMT3 (sense 5'-guucccGAuGuuAacGucudTsdT-3'; antisense 5'-AGACGUuAAcAUCGGGAACdTsdT-3'; RNA with 2'-O-methyl and phosphorothioate modifications, case key not given here, as printed in the source, key not given here)”, the IC50 was determined as 6.75 nM. As to “XD-09708: siRNA targeting FERMT3 (sense 5'-gcuGccGAAuuGuacAcGAdTsdT-3'; antisense 5'-UCGUGuAcAAUUCGGcAGCdTsdT-3'; RNA with 2'-O-methyl and phosphorothioate modifications, case key not given here, as printed in the source, key not given here)”, the IC50 stood at 0.012 nM. Consider “XD-09709: siRNA targeting FERMT3 (sense 5'-guAGcuAcAGGAugAuGAAdTsdT-3'; antisense 5'-UUcAUcAUCCUGuAGCuACdTsdT-3'; RNA with 2'-O-methyl and phosphorothioate modifications, case key not given here, as printed in the source, key not given here)”, for which inhibition was half-maximal at 0.048 nM (IC50).

Another data set deals with DOCK2. Put plainly: siRNA dose response, DOCK2 mRNA knockdown, bDNA Assay. The class given is cell-based, human. Particulars: THP-1, 24 hr. The procedure: as §1, §2, §3, §4
Take “XD-09691: siRNA targeting DOCK2 (sense 5'-ggGGAuAccucAuaAAGcAdTsdT-3'; antisense 5'-UGCUUuAUGAGGuAUCCCCdTsdT-3'; RNA with 2'-O-methyl and phosphorothioate modifications, case key not given here, as printed in the source, key not given here)”: it took 11.7 nM to reach half-maximal inhibition (IC50). The same measure, in the same setting: next, “XD-09694: siRNA targeting DOCK2 (sense 5'-ccAucuGcGAuucauGuuudTsdT-3'; antisense 5'-AAAcAUGAAUCGcAGAUGGdTsdT-3'; RNA with 2'-O-methyl and phosphorothioate modifications, case key not given here, as printed in the source, key not given here)”: 0.403 nM. In the case of “XD-09696: siRNA targeting DOCK2 (sense 5'-cucAuuGcAGAccgGAAAudTsdT-3'; antisense 5'-AUUUCCGGUCUGcAAUGAGdTsdT-3'; RNA with 2'-O-methyl and phosphorothioate modifications, case key not given here, as printed in the source, key not given here)”, the midpoint of inhibition, the IC50, lay at 1.77 nM. “XD-09697: siRNA targeting DOCK2 (sense 5'-accGGAAAuuucAgcAuuudTsdT-3'; antisense 5'-AAAUGCUGAAAUUUCCGGUdTsdT-3'; RNA with 2'-O-methyl and phosphorothioate modifications, case key not given here, as printed in the source, key not given here)” came in with an IC50 of 0.556 nM.

“XD-09698: siRNA targeting DOCK2 (sense 5'-ggucGAGGAcAuuauuuucdTsdT-3'; antisense 5'-GAAAAuAAUGUCCUCGACCdTsdT-3'; as printed in the source, key not given here)”: the midpoint of inhibition, the IC50, lay at 1.36 nM.
